From ChEMBL document CHEMBL4130350, “Discovery, mechanism and metabolism studies of 2,3-difluorophenyl-linker-containing PARP1 inhibitors with enhanced in vivo efficacy for cancer therapy” (Eur J Med Chem, 2017)
Values after ≈ are worked out from the molar mass of the structure shown. Active and inactive are the calls of the source. The calls are words filed in the database; no cut-off is given here.

Columns and labels:
[1] = system: MDA-MB-436; assay: Induction of apoptosis in human MDA-MB-436 cells assessed as early apoptotic cells at 0.1 uM after 96 hrs in presence of pancaspase inhibitor Z-VAD-FMK by Annexin V-FITC/propidium iodide double-staining based flow cytometery (reference value: 2.32%); format: functional
[2] = system: CAPAN-1; assay: Cell cycle arrest in human Capan1 cells assessed as accumulation at G0/G1 phase at 1 uM after 72 hrs by propidium iodide-staining based flow cytometry (reference value: 63.33%); format: functional
[3] = AUC in Sprague-Dawley rat at 10 mg/kg, iv by LC-MS/MS analysis; format: ADME, organism-based; conditions: in vivo
[4] = Solubility of the compound in water after 24 hrs by HPLC analysis; format: physicochemical
[5] = Half life in Sprague-Dawley rat at 20 mg/kg, po by LC-MS/MS analysis; format: ADME, organism-based; conditions: in vivo
[6] = Cytotoxicity against BRCA2 deficient Chinese hamster VC8 cells after 3 days by CCK8 or SRB assay; format: functional, cell-based; conditions: Cricetulus griseus, V-C8, 72 h
[7] = system: MDA-MB-436; assay: Induction of apoptosis in human MDA-MB-436 cells assessed as early apoptotic cells at 1 uM after 96 hrs by Annexin V-FITC/propidium iodide double-staining based flow cytometery (reference value: 1.90%); format: functional
[8] = system: MDA-MB-436; assay: Antiproliferative activity against human MDA-MB-436 cells after 7 days by CCK8 or SRB assay; format: functional, cell-based; conditions: MDA-MB-436, 168 h
[9] = system: MDA-MB-436; assay: Induction of apoptosis in human MDA-MB-436 cells assessed as early apoptotic cells at 0.1 uM after 96 hrs by Annexin V-FITC/propidium iodide double-staining based flow cytometery (reference value: 1.90%); format: functional
[10] = AUC in Sprague-Dawley rat at 20 mg/kg, po by LC-MS/MS analysis; format: ADME, organism-based; conditions: in vivo
[11] = system: MDA-MB-436; assay: Induction of apoptosis in human MDA-MB-436 cells assessed as late apoptotic cells at 0.1 uM after 96 hrs by Annexin V-FITC/propidium iodide double-staining based flow cytometery (reference value: 5.61%); format: functional
[12] = system: CAPAN-1; assay: Cell cycle arrest in human Capan1 cells assessed as accumulation at G0/G1 phase at 0.1 uM after 72 hrs by propidium iodide-staining based flow cytometry (reference value: 63.33%); format: functional
[13] = Half life in Sprague-Dawley rat at 10 mg/kg, iv by LC-MS/MS analysis; format: ADME, organism-based; conditions: in vivo
[14] = Cmax in Sprague-Dawley rat at 10 mg/kg, iv by LC-MS/MS analysis; format: ADME, organism-based; design: dose 10 mg/kg, route intravenous; conditions: in vivo
[15] = Oral bioavailability in Sprague-Dawley rat at 20 mg/kg by LC-MS/MS analysis; format: ADME, organism-based; conditions: in vivo
[16] = system: CAPAN-1; assay: Cell cycle arrest in human Capan1 cells assessed as accumulation at G2/M phase at 1 uM after 72 hrs by propidium iodide-staining based flow cytometry (reference value: 15.26%); format: functional
[17] = system: MDA-MB-436; assay: Induction of apoptosis in human MDA-MB-436 cells assessed as caspase-3/7 activation at 0.1 to 1 uM after 72 hrs by Caspase-Glo 3/7 assay; format: functional, cell-based
[18] = system: MDA-MB-436; assay: Induction of apoptosis in human MDA-MB-436 cells assessed as early apoptotic cells at 1 uM after 96 hrs in presence of pancaspase inhibitor Z-VAD-FMK by Annexin V-FITC/propidium iodide double-staining based flow cytometery (reference value: 2.32%); format: functional
[19] = Cmax in Sprague-Dawley rat at 20 mg/kg, po by LC-MS/MS analysis; format: ADME, organism-based; design: dose 20 mg/kg, route oral; conditions: in vivo
[20] = system: MDA-MB-436; assay: Induction of apoptosis in human MDA-MB-436 cells assessed as late apoptotic cells at 0.1 uM after 96 hrs in presence of pancaspase inhibitor Z-VAD-FMK by Annexin V-FITC/propidium iodide double-staining based flow cytometery (reference value: 5.11%); format: functional
[21] = Clearance in Sprague-Dawley rat at 10 mg/kg, iv by LC-MS/MS analysis; format: ADME, organism-based; conditions: in vivo
[22] = system: CAPAN-1; assay: Cell cycle arrest in human Capan1 cells assessed as accumulation at S phase at 0.1 uM after 72 hrs by propidium iodide-staining based flow cytometry (reference value: 21.42%); format: functional
[23] = Volume of distribution in Sprague-Dawley rat at 10 mg/kg, iv by LC-MS/MS analysis; format: ADME, organism-based; conditions: in vivo
[24] = system: MDA-MB-436; assay: Antitumor activity against human MDA-MB-436 cells harboring BRCA1 mutant xenografted in nude BALB/cA mouse assessed as tumor growth inhibition at 100 mg/kg, po administered once daily for 21 consecutive days measured twice per week; format: functional; conditions: MDA-MB-436, po, read-out: TGI
[25] = system: V79; assay: Cytotoxicity against BRCA2 expressing Chinese hamster V79 cells after 3 days by CCK8 or SRB assay; format: cell-based; conditions: Cricetulus griseus, V79, 72 h
[26] = system: CAPAN-1; assay: Cell cycle arrest in human Capan1 cells assessed as accumulation at S phase at 1 uM after 72 hrs by propidium iodide-staining based flow cytometry (reference value: 21.42%); format: functional
[27] = system: MDA-MB-436; assay: Induction of apoptosis in human MDA-MB-436 cells assessed as late apoptotic cells at 1 uM after 96 hrs by Annexin V-FITC/propidium iodide double-staining based flow cytometery (reference value: 5.61%); format: functional
[28] = system: CAPAN-1; assay: Antiproliferative activity against human Capan1 cells after 7 days by CCK8 or SRB assay; format: functional, cell-based; conditions: CAPAN-1, 168 h
[29] = system: CAPAN-1; assay: Cell cycle arrest in human Capan1 cells assessed as accumulation at G2/M phase at 0.1 uM after 72 hrs by propidium iodide-staining based flow cytometry (reference value: 15.26%); format: functional
[30] = system: MDA-MB-436; assay: Induction of apoptosis in human MDA-MB-436 cells assessed as late apoptotic cells at 1 uM after 96 hrs in presence of pancaspase inhibitor Z-VAD-FMK by Annexin V-FITC/propidium iodide double-staining based flow cytometery (reference value: 5.11%); format: functional
[31] = Cmax in Sprague-Dawley rat at 2 mg/kg, po by LC-MS/MS analysis; format: ADME, organism-based; design: dose 2 mg/kg, route oral; conditions: in vivo
[32] = Apparent permeability across apical to basolateral side in human Caco2 cells after 2 hrs by LC-MS/MS analysis; format: ADME, cell-based; conditions: Caco-2
[33] = Apparent permeability across apical to basolateral side in human Caco2 cells assessed as drug recovery at 5631.3 pmol after 2 hrs by LC-MS/MS analysis; format: ADME, cell-based; conditions: Caco-2, read-out: Drug recovery
[34] = Clearance in Sprague-Dawley rat at 1 mg/kg, iv by LC-MS/MS analysis; format: ADME, organism-based; conditions: in vivo
[35] = Apparent permeability across basolateral to apical side in human Caco2 cells after 2 hrs by LC-MS/MS analysis; format: ADME, cell-based; conditions: Caco-2
[36] = Stability in mouse plasma at 1 uM up to 60 mins by LC-MS/MS analysis; format: ADME, cell-free; conditions: read-out: Stability
[37] = Protein binding in mouse plasma at 0.5 to 50 uM after 4 hrs by LC-MS/MS analysis; format: ADME, cell-free; conditions: read-out: PPB (converted)
[38] = Volume of distribution in Sprague-Dawley rat at 1 mg/kg, iv by LC-MS/MS analysis; format: ADME, organism-based; conditions: in vivo
[39] = system: Mus musculus; assay: Toxicity in nude BALB/cA mouse xenografted with human Capan1 cells harboring BRCA2 mutant assessed as weight loss at 0.5 mg/kg, po administered once daily for 21 consecutive days measured twice per week; format: organism-based; conditions: in vivo
[40] = AUC in Sprague-Dawley rat at 2 mg/kg, po by LC-MS/MS analysis; format: ADME, organism-based; conditions: in vivo
[41] = Apparent permeability across basolateral to apical side in human Caco2 cells assessed as drug recovery at 18593.3 pmol after 2 hrs by LC-MS/MS analysis; format: ADME, cell-based; conditions: Caco-2, read-out: Drug recovery
[42] = system: Rattus norvegicus; assay: Half life in Sprague-Dawley rat at 2 mg/kg, po by LC-MS/MS analysis; format: ADME, organism-based; conditions: in vivo
[43] = Cmax in Sprague-Dawley rat at 1 mg/kg, iv by LC-MS/MS analysis; format: ADME, organism-based; design: dose 1 mg/kg, route intravenous; conditions: in vivo
[44] = AUC in Sprague-Dawley rat at 1 mg/kg, iv by LC-MS/MS analysis; format: ADME, organism-based; conditions: in vivo
[45] = Half life in Sprague-Dawley rat at 1 mg/kg, iv by LC-MS/MS analysis; format: ADME, organism-based; conditions: in vivo
[46] = system: Mus musculus; assay: Toxicity in nude BALB/cA mouse xenografted with human Capan1 cells harboring BRCA2 mutant assessed as mortality at 0.5 mg/kg, po administered once daily for 21 consecutive days measured twice per week; format: organism-based; conditions: in vivo
[47] = Elimination half-life in mouse liver microsomes at 2 uM up to 60 mins by LC-MS/MS analysis; format: ADME, microsome; conditions: read-out: beta t1/2
[48] = system: CAPAN-1; assay: Antitumor activity against human Capan1 cells harboring BRCA2 mutant xenografted in nude BALB/cA mouse assessed as tumor growth inhibition at 0.5 mg/kg, po administered once daily for 21 consecutive days measured twice per week; format: functional; conditions: CAPAN-1, po, read-out: TGI
[49] = Oral bioavailability in Sprague-Dawley rat at 2 mg/kg by LC-MS/MS analysis; format: ADME, organism-based; conditions: in vivo

## O=C(c1cc(Cc2n[nH]c(=O)c3ccccc23)ccc1F)N1CCN(C(=O)C2CC2)CC1 [OLAPARIB]
[1]
  Activity: 3.3%
[2]
  Activity: 22.33%
[3]
  AUC: 5500 ng·h/mL
[4]
  solubility at 24 h: 104 µg/mL (≈ 239 µM)
[5]
  half-life: 1 h
[6]
  IC50: 566 nM
[7]
  Activity: 4.15%
[8]
  IC50: 39.3 nM
[9]
  Activity: 2.5%
[10]
  AUC: 4990 ng·h/mL
[11]
  Activity: 9.78%
[12]
  Activity: 51.83%
[13]
  half-life: 1.1 h
[14]
  Cmax: 12300 ng/mL
[15]
  bioavailability: 45.4%
[16]
  Activity: 51.54%
[17]
  Activity: Active
[18]
  Activity: 4.79%
[19]
  Cmax: 2590 ng/mL
[20]
  Activity: 6.52%
[21]
  clearance: 30 mL/min/kg
[22]
  Activity: 27.2%
[23]
  Vd: 3 L/kg
[24]
  inhibition in vivo at 100 mg/kg: 65%
[25]
  IC50: 10000 to 54200 nM
[26]
  Activity: 26.14%
[27]
  Activity: 17.75%
[28]
  IC50: 399 nM
[29]
  Activity: 20.91%
[30]
  Activity: 9.97%

## Cn1ncnc1[C@H]1c2n[nH]c(=O)c3cc(F)cc(c23)N[C@@H]1c1ccc(F)cc1 [TALAZOPARIB]
[31]
  Cmax: 3100 ng/mL
[32]
  Papp A→B at 2 h: 0.9 ×10⁻⁶ cm/s
[6]
  IC50: 4.2 nM
[33]
  recovery at 2 h: 98.4%
[34]
  clearance: 3.33 mL/min/kg
[35]
  Papp B→A at 2 h: 51.8 ×10⁻⁶ cm/s
[8]
  IC50: 0.7 nM
[36]
  remaining at 1 h, 1 µM: 106%
[37]
  fraction unbound at 4 h, up to 50 µM: 0.057
[38]
  Vd: 1.1 L/kg
[39]
  Activity: Toxic
[40]
  AUC: 13200 ng·h/mL
[41]
  recovery at 2 h: 108%
[42]
  t1/2: 3.4 h
[43]
  Cmax: 2060 ng/mL
[44]
  AUC: 6540 ng·h/mL
[45]
  half-life: 4.6 h
[25]
  IC50: 5010 nM
[46]
  Activity: Toxic
[47]
  half-life at 2 µM: > 1 h
[28]
  IC50: 1.8 nM
[48]
  inhibition in vivo at 0.5 mg/kg: 80%
[49]
  bioavailability: 104%
